The values below come from ChEMBL document CHEMBL1143043, “Monitoring aminoglycoside-induced conformational changes in 16S rRNA through acrylamide quenching” (Bioorg Med Chem, 2007).

Experiment [1] can be described thus: Affinity to 2-aminopurine labeled hairpin A-site 16S rRNA by Electrospray ionization mass spectrometry.
Experiment [2] is described as follows: Affinity to hairpin A-site 16S rRNA by Electrospray ionization mass spectrometry.

One may read the Kd as the free concentration of one partner at which half of the binding sites on the other are occupied at equilibrium, for simple one-to-one binding. A lower Kd goes with a tighter complex.

SMILES strings stand for the structures.

In the case of `NC[C@@H]1O[C@H](O[C@H]2[C@@H](O)[C@H](O[C@@H]3[C@@H](O)[C@H](N)C[C@H](N)[C@H]3O[C@H]3O[C@H](CO)[C@@H](O)[C@H](O)[C@H]3N)O[C@@H]2CO)[C@H](N)[C@@H](O)[C@@H]1O` [PAROMOMYCIN], the results for the Kd in experiment [1] and in experiment [2] were 0.98 µM and 0.37 µM, respectively.
